# From ChEMBL document CHEMBL5375952, “Discovery of Novel 8-Hydroxyquinoline Derivatives with Potent In Vitro and In Vivo Antifungal Activity” (J Med Chem, 2023)
# Activity calls are given as the source filed them. The calls are words filed in the database; no cut-off is given here.
# How the values were obtained:
# [1] = test system: Candida albicans; test: Antifungal activity against FLC-resistant Candida albicans 953 assessed as fungal growth inhibition incubated for 48 hrs by broth microdilution method; type: functional
# [2] = test system: Candida albicans; test: Antifungal activity against FLC-resistant Candida albicans 1221 assessed as fungal growth inhibition incubated for 48 hrs by broth microdilution method; type: functional
# [3] = test system: Pichia kudriavzevii; test: Antifungal activity against Candida krusei 472 assessed as fungal growth inhibition incubated for 48 hrs by broth microdilution method; type: functional
# [4] = test system: Candida albicans; test: Antifungal activity against FLC-resistant Candida albicans 819 assessed as fungal growth inhibition incubated for 48 hrs by broth microdilution method; type: functional
# [5] = test system: Candida albicans; test: Antifungal activity against FLC-resistant Candida albicans 395 assessed as fungal growth inhibition incubated for 48 hrs by broth microdilution method; type: functional
# [6] = test system: Candida albicans; test: Antifungal activity against FLC-resistant Candida albicans 100 assessed as fungal growth inhibition incubated for 48 hrs by broth microdilution method; type: functional
# [7] = test system: Candida albicans; test: Antifungal activity against Candida albicans SC5314 assessed as fungal growth inhibition incubated for 48 hrs in presence of K+ by broth microdilution method; type: functional, organism-based
# [8] = test system: Candida albicans; test: Antifungal activity against FLC-resistant Candida albicans 17 assessed as fungal growth inhibition incubated for 48 hrs by broth microdilution method; type: functional
# [9] = Toxicity in C57BL/6 mouse infected with Candida albicans SC5314 assessed as mean survival time at 2 mg/kg, ip (reference value: 5 day); type: organism-based; conditions: in vivo, 120 h
# [10] = test system: Candida tropicalis; test: Antifungal activity against Candida tropicalis 178 assessed as fungal growth inhibition incubated for 48 hrs by broth microdilution method; type: functional
# [11] = test system: Candida albicans; test: Antifungal activity against FLC-resistant Candida albicans 11 assessed as fungal growth inhibition incubated for 48 hrs by broth microdilution method; type: functional
# [12] = test system: Candida albicans; test: Antifungal activity against FLC-resistant Candida albicans 512681 assessed as fungal growth inhibition incubated for 48 hrs by broth microdilution method; type: functional
# [13] = test system: Candida albicans; test: Antifungal activity against FLC-resistant Candida albicans 512644 assessed as fungal growth inhibition incubated for 48 hrs by broth microdilution method; type: functional
# [14] = test system: Candida albicans; test: Antifungal activity against FLC-resistant Candida albicans 379 assessed as fungal growth inhibition incubated for 48 hrs by broth microdilution method; type: functional
# [15] = test system: Candida albicans; test: Antifungal activity against FLC-resistant Candida albicans 710506 assessed as fungal growth inhibition incubated for 48 hrs by broth microdilution method; type: functional
# [16] = test system: Aspergillus fumigatus; test: Antifungal activity against Aspergillus fumigatus 023-12 assessed as fungal growth inhibition incubated for 48 hrs by broth microdilution method; type: functional
# [17] = test system: Candida albicans; test: Antifungal activity against FLC-resistant Candida albicans 540 assessed as fungal growth inhibition incubated for 48 hrs by broth microdilution method; type: functional
# [18] = test system: Candida albicans; test: Synergistic antifungal activity against FLC-resistant Candida albicans 538 assessed as fungal growth inhibition incubated for 48 hrs in presence of FLC by broth microdilution method; type: functional
# [19] = test system: Candida albicans; test: Antifungal activity against FLC-resistant Candida albicans 710452 assessed as fungal growth inhibition incubated for 48 hrs by broth microdilution method; type: functional
# [20] = test system: Candida albicans; test: Antifungal activity against FLC-resistant Candida albicans 12 assessed as fungal growth inhibition incubated for 48 hrs by broth microdilution method; type: functional
# [21] = test system: Candida albicans; test: Antifungal activity against FLC-resistant Candida albicans 5740 assessed as fungal growth inhibition incubated for 48 hrs by broth microdilution method; type: functional
# [22] = test system: Candida albicans; test: Antifungal activity against FLC-resistant Candida albicans 241 assessed as fungal growth inhibition incubated for 48 hrs by broth microdilution method; type: functional
# [23] = test system: Pichia kudriavzevii; test: Antifungal activity against Candida krusei 69 assessed as fungal growth inhibition incubated for 48 hrs by broth microdilution method; type: functional
# [24] = test system: Candida albicans; test: Antifungal activity against FLC-resistant Candida albicans 710513 assessed as fungal growth inhibition incubated for 48 hrs by broth microdilution method; type: functional
# [25] = test system: Candida albicans; test: Antifungal activity against Candida albicans SC5314 infected in C57BL/6 mouse assessed as mean fungal burden at 2 mg/kg, ip measured after 46 hrs by plate count method (reference value: 6.890 log10CFU/ml); type: functional
# [26] = test system: Candida albicans; test: Antifungal activity against FLC-resistant Candida albicans 605141 assessed as fungal growth inhibition incubated for 48 hrs by broth microdilution method; type: functional
# [27] = test system: Candida albicans; test: Antifungal activity against FLC-resistant Candida albicans 8 assessed as fungal growth inhibition incubated for 48 hrs by broth microdilution method; type: functional
# [28] = test system: Candida albicans; test: Antifungal activity against FLC-resistant Candida albicans 538 assessed as fungal growth inhibition incubated for 48 hrs by broth microdilution method; type: functional
# [29] = test system: [Candida] auris; test: Antifungal activity against Candida auris 887 assessed as fungal growth inhibition incubated for 48 hrs by broth microdilution method; type: functional; conditions: Candidozyma auris
# [30] = test system: Candida albicans; test: Antifungal activity against FLC-resistant Candida albicans 10 assessed as fungal growth inhibition incubated for 48 hrs by broth microdilution method; type: functional
# [31] = Cytotoxicity against HUVEC cells assessed as cell growth inhibition incubated for 24 hrs by CCK8 assay; type: toxicity, cell-based; conditions: human
# [32] = test system: Candida albicans; test: Antifungal activity against Candida albicans SC5314 assessed as fungal growth inhibition incubated for 48 hrs in presence of Mg2+ by broth microdilution method; type: functional, organism-based
# [33] = test system: Candida albicans; test: Antifungal activity against FLC-resistant Candida albicans 710419 assessed as fungal growth inhibition incubated for 48 hrs by broth microdilution method; type: functional
# [34] = test system: Candida albicans; test: Antifungal activity against FLC-resistant Candida albicans 304103 assessed as fungal growth inhibition incubated for 48 hrs by broth microdilution method; type: functional
# [35] = test system: Candida albicans; test: Antifungal activity against FLC-resistant Candida albicans 249 assessed as fungal growth inhibition incubated for 48 hrs by broth microdilution method; type: functional
# [36] = test system: Candida albicans; test: Antifungal activity against FLC-resistant Candida albicans 14 assessed as fungal growth inhibition incubated for 48 hrs by broth microdilution method; type: functional
# [37] = test system: Candida albicans; test: Inhibition of mature biofilm formation of Candida albicans SC5314 upto 16 ug/ml incubated for 24 hrs by XTT assay; type: functional, organism-based; conditions: dose <= 16.0 µg/ml
# [38] = test system: Cryptococcus neoformans; test: Antifungal activity against Cryptococcus neoformans SH68 assessed as fungal growth inhibition incubated for 48 hrs by broth microdilution method; type: functional
# [39] = test system: Candida albicans; test: Antifungal activity against Candida albicans SC5314 assessed as fungal growth inhibition incubated for 48 hrs in presence of Ca2+ by broth microdilution method; type: functional, organism-based
# [40] = test system: Candida albicans; test: Antifungal activity against FLC-resistant Candida albicans 64548 assessed as fungal growth inhibition incubated for 48 hrs by broth microdilution method; type: functional
# [41] = test system: Candida albicans; test: Synergistic antifungal activity against FLC-resistant Candida albicans 605141 assessed as fungal growth inhibition incubated for 48 hrs in presence of FLC by broth microdilution method; type: functional
# [42] = test system: Candida albicans; test: Antifungal activity against FLC-resistant Candida albicans 710554 assessed as fungal growth inhibition incubated for 48 hrs by broth microdilution method; type: functional
# [43] = test system: Candida albicans; test: Antifungal activity against FLC-resistant Candida albicans 385 assessed as fungal growth inhibition incubated for 48 hrs by broth microdilution method; type: functional
# [44] = test system: Candida albicans; test: Antifungal activity against FLC-resistant Candida albicans 305 assessed as fungal growth inhibition incubated for 48 hrs by broth microdilution method; type: functional
# [45] = test system: Candida albicans; test: Antifungal activity against Candida albicans SC5314 assessed as fungal growth inhibition incubated for 48 hrs in presence of Zn2+ by broth microdilution method; type: functional, organism-based
# [46] = test system: Candida albicans; test: Antifungal activity against FLC-resistant Candida albicans 646 assessed as fungal growth inhibition incubated for 48 hrs by broth microdilution method; type: functional
smiles,measurement,setting,value
CCN(CC)c1ccc(C(NC(=O)C(C)C)c2ccc3cccnc3c2O)cc1 (stereo unspecified),MIC,[1],0.5 µg/mL
same,MIC,[2],0.25 µg/mL
same,MIC,[3],0.125 µg/mL
same,MIC,[4],0.125 µg/mL
same,MIC,[5],0.125 µg/mL
same,MIC,[6],0.125 µg/mL
same,growth inhibition (GI),[7],Active
same,MIC,[8],0.5 µg/mL
same,Survival,[9],6.5 days
same,MIC,[10],0.032 µg/mL
same,MIC,[11],0.25 µg/mL
same,MIC,[12],0.25 µg/mL
same,MIC,[13],0.25 µg/mL
same,MIC,[14],0.25 µg/mL
same,MIC,[15],1 µg/mL
same,MIC,[16],0.5 µg/mL
same,MIC,[17],0.25 µg/mL
same,MIC,[18],0.008 µg/mL
same,MIC,[19],0.125 µg/mL
same,MIC,[20],0.25 µg/mL
same,MIC,[21],0.063 µg/mL
same,MIC,[22],0.5 µg/mL
same,MIC,[23],0.125 µg/mL
same,MIC,[24],0.5 µg/mL
same,Activity,[25],6.283 log10CFU/g
same,MIC,[26],0.5 µg/mL
same,MIC,[27],0.125 µg/mL
same,MIC,[28],0.25 µg/mL
same,MIC,[29],0.25 µg/mL
same,MIC,[30],0.125 µg/mL
same,IC50 at 24 h,[31],67.8 µg/mL
same,growth inhibition (GI),[32],Active
same,MIC,[33],0.5 µg/mL
same,MIC,[34],0.25 µg/mL
same,MIC,[35],0.25 µg/mL
same,MIC,[36],0.125 µg/mL
same,inhibition,[37],inactive
same,MIC,[38],< 0.016 µg/mL
same,growth inhibition (GI),[39],Active
same,MIC,[40],0.5 µg/mL
same,MIC,[41],0.031 µg/mL
same,MIC,[42],0.5 µg/mL
same,MIC,[43],0.125 µg/mL
same,MIC,[44],0.5 µg/mL
same,growth inhibition (GI),[45],Active
same,MIC,[46],0.125 µg/mL
OC(Cn1cncn1)(Cn1cncn1)c1ccc(F)cc1F [FLUCONAZOLE],MIC,[1],> 64 µg/mL
same,MIC,[2],> 64 µg/mL
same,MIC,[3],> 64 µg/mL
same,MIC,[4],32 µg/mL
same,MIC,[5],32 µg/mL
same,MIC,[6],16 µg/mL
same,MIC,[8],32 µg/mL
same,MIC,[10],2 µg/mL
same,MIC,[11],32 µg/mL
same,MIC,[12],> 64 µg/mL
same,MIC,[13],> 64 µg/mL
same,MIC,[14],> 64 µg/mL
same,MIC,[15],> 64 µg/mL
same,MIC,[16],> 64 µg/mL
same,MIC,[17],> 64 µg/mL
same,MIC,[19],> 64 µg/mL
same,MIC,[20],32 µg/mL
same,MIC,[21],32 µg/mL
same,MIC,[22],> 64 µg/mL
same,MIC,[23],0.25 µg/mL
same,MIC,[24],> 64 µg/mL
same,MIC,[26],> 64 µg/mL
same,MIC,[27],16 µg/mL
same,MIC,[28],> 64 µg/mL
same,MIC,[29],> 64 µg/mL
same,MIC,[30],32 µg/mL
same,IC50 at 24 h,[31],9.18 µg/mL
same,MIC,[33],> 64 µg/mL
same,MIC,[34],32 µg/mL
same,MIC,[35],32 µg/mL
same,MIC,[36],32 µg/mL
same,inhibition,[37],inactive
same,MIC,[38],8 µg/mL
same,MIC,[40],> 64 µg/mL
same,MIC,[42],> 64 µg/mL
same,MIC,[43],> 64 µg/mL
same,MIC,[44],> 64 µg/mL
same,MIC,[46],> 64 µg/mL
Oc1c(I)cc(Cl)c2cccnc12 [CLIOQUINOL],MIC,[3],0.125 µg/mL
same,growth inhibition (GI),[7],Active
same,Survival,[9],5 days
same,MIC,[10],0.125 µg/mL
same,MIC,[16],0.25 µg/mL
same,MIC,[23],0.125 µg/mL
same,Activity,[25],6.683 log10CFU/g
same,MIC,[29],0.5 µg/mL
same,growth inhibition (GI),[32],Active
same,MIC,[38],0.125 µg/mL
same,growth inhibition (GI),[39],Active
same,growth inhibition (GI),[45],Active
